Experimental data taken from US8785424B2, “ngCycloartanone derivatives with anticancer activity” (Pierre Fabre Medicament, priority 2009, dated 2014).
Where a name gives a salt, the structure may show the parent alone.

System: proteasome
Assay: Cellular proteasome inhibition test: accumulation of 4Ub-Luc reporter (luciferase activity) in DLD-1 4Ub-Luc cell line
Type: cell-based, human
Details: DLD-1 4Ub-Luc cells; for relative induction factor (IF % luminescence) versus epoxomicin: 8 hours, epoxomicin = 100%
Summary of the method: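 DLD-1 4Ub-Luc human colon cancer cells, which express a 4-ubiquitin–luciferase fusion that the proteasome degrades, were seeded into white 96-well plates (100 μl of 1·10^5 c/ml) and left to adhere for 24 hours. They were then treated, with 0.1% DMSO as solvent control and 10^−7 M epoxomicin as reference. Cells were rinsed with PBS, lysed in passive lysis buffer and frozen at −20° C. Luciferase activity was measured with a Promega kit at 20-25° C. Each induction factor versus solvent was expressed relative to epoxomicin, set at 100%.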

[1] = concentration tested 5 · 10^−6 M

Row | SMILES | relative induction factor (IF % luminescence) versus epoxomicin [1] | relative induction factor (IF % luminescence) versus epoxomicin (concentration tested 10^−5 M) | relative induction factor (IF % luminescence) versus epoxomicin (concentration tested 10^−6 M) | relative induction factor (IF % luminescence) versus epoxomicin (concentration tested 5 · 10^−7 M) | induction factor of the reference (IF % luminescence) (reference molecule at 10^−7 M, set to IF=100%)
1 | C=C(C(=O)[C@H](OC(=O)CCC(=O)O)[C@@H](C)[C@H]1[C@@H](OC(C)=O)C[C@@]2(C)C3CCC4[C@H](C)C(=O)C=C[C@@]45C[C@@]35CC[C@]12C)[C@@H](C)COC(C)=O (some centres unmarked) [Compound 74, 22-deacetyl-22-succinate-26-acetyl-neoboutomellerone N-methylglucamine salt] | 14% | 2% | 60% | – | –
2 | C=C(C(=O)[C@H](OC(C)=O)[C@@H](C)[C@H]1[C@@H](OC(C)=O)C[C@@]2(C)C3CCC4[C@H](C)C(=O)C=C[C@@]45C[C@@]35CC[C@]12C)[C@@H](C)COC1(C)OC2OC(COC(C)=O)C(OC(C)=O)C(OC(C)O)C2O1 (some centres unmarked) [Compound 82, Neoboutomellerone 26-(2,3,4,6-tetraacetyl-glucosylate)] | 59% | 48% | 2% | – | –
3 | CC(=O)O[C@H]1C[C@@]2(C)[C@@H]3CC[C@H]4[C@H](C)C(=O)C=C[C@@]45C[C@@]35CC[C@]2(C)[C@H]1[C@H](C)[C@@H](OC(C)=O)C12OCC(C)C1Cc1ccc(O)cc1O2 (some centres unmarked) [Compound 88, Neoboutomellerone Resorcinol Derivative] | 47% | 78% | 1% | – | –
4 | C=C(C(=O)[C@H](OC(C)=O)[C@@H](C)[C@H]1[C@@H](OC(C)=O)C[C@@]2(C)C3CCC4[C@H](C)C(=O)C=C[C@@]45C[C@@]35CC[C@]12C)[C@@H](C)COP(=O)(O)O (some centres unmarked) [Compound 89, 26-phosphate-neoboutomellerone] | 3% | 40% | 1% | – | –
5 | C=C(C(=O)[C@H](OC(C)=O)[C@@H](C)[C@H]1[C@@H](OC(C)=O)C[C@@]2(C)[C@@H]3CC[C@H]4[C@H](C)C(=O)C=C[C@@]45C[C@@]35CC[C@]12C)[C@@H](C)COP(=O)(O)O [Compound 90, 26-phosphate-neoboutomellerone N-methyl Glutamine Salt] | 4% | 51% | 1% | – | –
6 | C=C(C(=O)[C@H](OC(C)=O)[C@@H](C)[C@H]1[C@@H](OC(C)=O)C[C@@]2(C)C3CCC4[C@H](C)C(=O)C=C[C@@]45C[C@@]35CC[C@]12C)[C@@H](C)COP(=O)(OCC)OCC (some centres unmarked) [Compound 92, 26-(diethylphosphate)-neoboutomellerone] | 16% | 2% | 43% | 3% | –
7 | CC[C@H](C)[C@H](NC(=O)[C@H]([C@@H](C)CC)N(C)C(C)=O)C(=O)N[C@H](C(=O)N[C@@H](CC(C)C)C(=O)[C@@]1(C)CO1)[C@@H](C)O [epoxomicin, reference compound] | – | – | – | – | 100%
